Results taken from the NIST ThermoML archive (doi:10.1016/j.fluid.2017.09.019).
± gives the expanded uncertainty stated by the source.

Test: wn = mass fraction of the nth substance listed
Conditions: 101 kPa, Liquid; for viscosity: Concentric cylinders viscometry; for mass density: Vibrating tube method

CC(O)CN(C)C (stereo not given) [1-(dimethylamino)-2-propanol] + O
Conditions	mass density [kg/m3]	viscosity [mPa·s]
298.15 K, w1 = 0.2	988.2 ± 2.4	2.407 ± 0.1
298.15 K, w1 = 0.25	986.5 ± 2.4	2.995 ± 0.1
298.15 K, w1 = 0.3	984.4 ± 2.4	3.886 ± 0.11
298.15 K, w1 = 0.35	979.5 ± 2.4	4.735 ± 0.11
298.15 K, w1 = 0.4	976.4 ± 2.4	5.67 ± 0.11
298.15 K, w1 = 0.45	970.3 ± 2.4	6.602 ± 0.12
298.15 K, w1 = 0.5	966.2 ± 2.4	7.632 ± 0.12
298.15 K, w1 = 0.6	949.4 ± 2.4	8.956 ± 0.13
298.15 K, w1 = 0.7	930.9 ± 2.4	9.925 ± 0.13
298.15 K, w1 = 0.8	908.8 ± 2.4	8.482 ± 0.12
298.15 K, w1 = 0.9	879.8 ± 2.4	5.585 ± 0.11
298.15 K, w1 = 0.95	863.9 ± 2.4	3.79 ± 0.11
298.15 K, w1 = 0.96	858.1 ± 2.4	3.282 ± 0.1
298.15 K, w1 = 0.98	852.4 ± 2.4	2.094 ± 0.1
298.15 K, w1 = 1	845.4 ± 2.4	1.332 ± 0.1
303.15 K, w1 = 0.2	985.7 ± 2.4	2.018 ± 0.1
303.15 K, w1 = 0.25	983.5 ± 2.4	2.51 ± 0.1
303.15 K, w1 = 0.3	981 ± 2.4	3.097 ± 0.1
303.15 K, w1 = 0.35	976.1 ± 2.4	3.805 ± 0.11
303.15 K, w1 = 0.4	972.1 ± 2.4	4.54 ± 0.11
303.15 K, w1 = 0.45	966.4 ± 2.4	5.187 ± 0.11
303.15 K, w1 = 0.5	962.1 ± 2.4	5.965 ± 0.12
303.15 K, w1 = 0.6	944.6 ± 2.4	6.964 ± 0.13
303.15 K, w1 = 0.7	925.3 ± 2.4	7.654 ± 0.13
303.15 K, w1 = 0.8	903.5 ± 2.4	6.762 ± 0.13
303.15 K, w1 = 0.9	875 ± 2.4	4.935 ± 0.11
303.15 K, w1 = 0.95	858.9 ± 2.4	3.199 ± 0.11
303.15 K, w1 = 0.96	853.1 ± 2.4	2.783 ± 0.1
303.15 K, w1 = 0.98	847.3 ± 2.4	1.875 ± 0.1
303.15 K, w1 = 1	840.3 ± 2.4	1.183 ± 0.1
308.15 K, w1 = 0.2	983 ± 2.4	1.738 ± 0.1
308.15 K, w1 = 0.25	980.6 ± 2.4	2.115 ± 0.1
308.15 K, w1 = 0.3	977.8 ± 2.4	2.559 ± 0.1
308.15 K, w1 = 0.35	972.4 ± 2.4	3.115 ± 0.1
308.15 K, w1 = 0.4	968.3 ± 2.4	3.647 ± 0.11
308.15 K, w1 = 0.45	961.8 ± 2.4	4.156 ± 0.11
308.15 K, w1 = 0.5	957.7 ± 2.4	4.75 ± 0.11
308.15 K, w1 = 0.6	940 ± 2.4	5.487 ± 0.12
308.15 K, w1 = 0.7	919.8 ± 2.4	6.02 ± 0.12
308.15 K, w1 = 0.8	899.1 ± 2.4	5.106 ± 0.12
308.15 K, w1 = 0.9	870.1 ± 2.4	3.396 ± 0.11
308.15 K, w1 = 0.95	854.1 ± 2.4	2.463 ± 0.1
308.15 K, w1 = 0.96	848.4 ± 2.4	2.211 ± 0.1
308.15 K, w1 = 0.98	842.4 ± 2.4	1.499 ± 0.1
308.15 K, w1 = 1	835.5 ± 2.4	1.059 ± 0.1
313.15 K, w1 = 0.2	980.4 ± 2.4	1.509 ± 0.1
313.15 K, w1 = 0.25	977.5 ± 2.4	1.803 ± 0.1
313.15 K, w1 = 0.3	973.6 ± 2.4	2.161 ± 0.1
313.15 K, w1 = 0.35	968.4 ± 2.4	2.587 ± 0.1
313.15 K, w1 = 0.4	964.1 ± 2.4	3.016 ± 0.1
313.15 K, w1 = 0.45	957.8 ± 2.4	3.375 ± 0.11
313.15 K, w1 = 0.5	953.4 ± 2.4	3.851 ± 0.11
313.15 K, w1 = 0.6	935.4 ± 2.4	4.387 ± 0.11
313.15 K, w1 = 0.7	915.8 ± 2.4	4.853 ± 0.11
313.15 K, w1 = 0.8	894.1 ± 2.4	4.197 ± 0.11
313.15 K, w1 = 0.9	865.3 ± 2.4	2.909 ± 0.1
313.15 K, w1 = 0.95	849.3 ± 2.4	2.048 ± 0.1
313.15 K, w1 = 0.96	843.6 ± 2.4	1.835 ± 0.1
313.15 K, w1 = 0.98	837.6 ± 2.4	1.322 ± 0.1
313.15 K, w1 = 1	830.7 ± 2.4	0.955 ± 0.1
318.15 K, w1 = 0.2	977.5 ± 2.4	1.325 ± 0.1
318.15 K, w1 = 0.25	974.3 ± 2.4	1.562 ± 0.1
318.15 K, w1 = 0.3	969.8 ± 2.4	1.852 ± 0.1
318.15 K, w1 = 0.35	964.1 ± 2.4	2.194 ± 0.1
318.15 K, w1 = 0.4	959.9 ± 2.4	2.523 ± 0.1
318.15 K, w1 = 0.45	953.6 ± 2.4	2.808 ± 0.1
318.15 K, w1 = 0.5	949 ± 2.4	3.178 ± 0.1
318.15 K, w1 = 0.6	930.7 ± 2.4	3.577 ± 0.11
318.15 K, w1 = 0.7	910.9 ± 2.4	3.973 ± 0.11
318.15 K, w1 = 0.8	889.4 ± 2.4	3.577 ± 0.11
318.15 K, w1 = 0.9	860.5 ± 2.4	2.629 ± 0.1
318.15 K, w1 = 0.95	844.4 ± 2.4	1.921 ± 0.1
318.15 K, w1 = 0.96	838.7 ± 2.4	1.735 ± 0.1
318.15 K, w1 = 0.98	832.6 ± 2.4	1.2 ± 0.1
318.15 K, w1 = 1	825.8 ± 2.4	0.866 ± 0.1
323.15 K, w1 = 0.2	974.2 ± 2.4	1.179 ± 0.1
323.15 K, w1 = 0.25	971 ± 2.4	1.363 ± 0.1
323.15 K, w1 = 0.3	966.2 ± 2.4	1.598 ± 0.1
323.15 K, w1 = 0.35	960.2 ± 2.4	1.868 ± 0.1
323.15 K, w1 = 0.4	955.5 ± 2.4	2.129 ± 0.1
323.15 K, w1 = 0.45	949.4 ± 2.4	2.36 ± 0.1
323.15 K, w1 = 0.5	944.5 ± 2.4	2.652 ± 0.1
323.15 K, w1 = 0.6	925.9 ± 2.4	2.974 ± 0.1
323.15 K, w1 = 0.7	906.8 ± 2.4	3.301 ± 0.1
323.15 K, w1 = 0.8	884.6 ± 2.4	2.909 ± 0.1
323.15 K, w1 = 0.9	855.9 ± 2.4	1.929 ± 0.1
323.15 K, w1 = 0.95	839.5 ± 2.4	1.357 ± 0.1
323.15 K, w1 = 0.96	833.8 ± 2.4	1.192 ± 0.1
323.15 K, w1 = 0.98	827.7 ± 2.4	1.003 ± 0.1
323.15 K, w1 = 1	820.9 ± 2.4	0.788 ± 0.1
328.15 K, w1 = 0.2	971.2 ± 2.4	1.05 ± 0.1
328.15 K, w1 = 0.25	967.6 ± 2.4	1.201 ± 0.1
328.15 K, w1 = 0.3	962.4 ± 2.4	1.402 ± 0.1
328.15 K, w1 = 0.35	955.6 ± 2.4	1.62 ± 0.1
328.15 K, w1 = 0.4	951.3 ± 2.4	1.821 ± 0.1
328.15 K, w1 = 0.45	944.2 ± 2.4	2.008 ± 0.1
328.15 K, w1 = 0.5	940.1 ± 2.4	2.239 ± 0.1
328.15 K, w1 = 0.6	921.2 ± 2.4	2.486 ± 0.1
328.15 K, w1 = 0.7	901.7 ± 2.4	2.781 ± 0.1
328.15 K, w1 = 0.8	880 ± 2.4	2.471 ± 0.1
328.15 K, w1 = 0.9	850.6 ± 2.4	1.824 ± 0.1
328.15 K, w1 = 0.95	834.6 ± 2.4	1.348 ± 0.1
328.15 K, w1 = 0.96	828.8 ± 2.4	1.208 ± 0.1
328.15 K, w1 = 0.98	822.8 ± 2.4	0.983 ± 0.1
328.15 K, w1 = 1	816 ± 2.4	0.72 ± 0.1
333.15 K, w1 = 0.2	967.8 ± 2.4	0.934 ± 0.1
333.15 K, w1 = 0.25	964.2 ± 2.4	1.067 ± 0.1
333.15 K, w1 = 0.3	958.4 ± 2.4	1.236 ± 0.1
333.15 K, w1 = 0.35	950.9 ± 2.4	1.483 ± 0.1
333.15 K, w1 = 0.4	946.7 ± 2.4	1.577 ± 0.1
333.15 K, w1 = 0.45	939.2 ± 2.4	1.724 ± 0.1
333.15 K, w1 = 0.5	936.1 ± 2.4	1.911 ± 0.1
333.15 K, w1 = 0.6	916 ± 2.4	2.106 ± 0.1
333.15 K, w1 = 0.7	897.1 ± 2.4	2.374 ± 0.1
333.15 K, w1 = 0.8	875.3 ± 2.4	2.182 ± 0.1
333.15 K, w1 = 0.9	845 ± 2.4	1.687 ± 0.1
333.15 K, w1 = 0.95	830.9 ± 2.4	1.236 ± 0.1
333.15 K, w1 = 0.96	823.8 ± 2.4	1.102 ± 0.1
333.15 K, w1 = 0.98	817.9 ± 2.4	0.853 ± 0.1
333.15 K, w1 = 1	811.1 ± 2.4	0.662 ± 0.1
